In patent US20040023924A1, “Use of xyloglucan polymers and oligomers, and derivative compounds, as phytosanitary products and biofertilizers” (priority 2000, published 2004):
Values belong to the compound of their own block, whether it stands above or below them.

Experiments:
[1] = system: Phospholipase D (E.C: 3.1.4.4); assay: Elicitation of phospholipase D activity (NBD-PE fluorescence); format: cell-based, Acer pseudoplatanus L.; conditions: for Optimal Plase D response (100% = non-elicited cells): at the optimal concentration
From the text: Vegetable material: Acer pseudoplatanus L. cells in Suspension
Phospholipase D (E.C: 3.1.4.4) (Plase D) activity: this is a phosphatidylcholine phosphatidohydrolase which releases the O-R3 group, according to the diagram below. To the extent that O-R3 is marked (a fluorochrome for example), quantifying this group is equivalent to assaying Plase D activity. For the experiments the substrate used is phosphatidylcholine conjugated to a fluorochrome, i.e. the product nitrobenzoxadiazole phosphoethanolamine (NBD-PE). The retained excitation and emission wavelengths of the fluorochrome are 460 nm and 534 nm respectively. [drawing 5]
Principle: assaying Plase D activity is equivalent to estimating the fluorescence variation at 534 nm of a reaction medium with a spectrofluorimeter (Perkin Elmer).
Test: the reaction medium in a microtitration plate well is as follows: 1.3 10^7 Acer pseudoplatanus L. cells are incubated in a 50 mM HEPES buffer, pH 6.8 enriched with CaCl2 (1 μM), ATP (2 μM), octyl-D-glucoside 50 μM, GTP (6 μM) in the presence of the NBD-PE substrate (4 μM), in the presence or absence of an elicitor (0-100 nM): 2′-fucosyl-lactose (FL), compound A; XXFGol, compound B, in the presence or not in the presence of a methyl jasmonate effector (0-5 nM). The Plase D activity assay is carried out by measuring the fluorescence at 534 nm.
Evaluation of the experimental data. For each sample at least three kinetics are recorded; the Plase D activity is given by the slope of the regression curve. The results are expressed by Δ F534 min^−1. One point on the graph corresponds to the linear regression treatment of at least 2 kinetic curves originating from 2 different samples.
The Plase D elicitation response is evaluated according to the fluorescence variation at […]; the 100% reference value corresponds to the fluorescence in the controls (non-elicited cells)

[2] = system: endochitinase (EC 3.2.1.14); assay: Induction of an endochitinase response in elicited cells; format: cell-based, Acer pseudoplatanus L.; conditions: 50 nM elicitor; for Endochitinase response: 42 hours; for Endochitinase early response R: after approximately 25 minutes
Experimental: Vegetable material: Acer pseudoplatanus L Cells in Suspension
Test: 2.10^6 Acer pseudoplatanus L. cells were elicited under circular stirring (80 rpm), in 25 ml of culture medium (without 2,4-D) by 50 nM of 2′-fucosyl lactose (compound A) or 50 nM of methyl α-L-Fuc (1→2) β-D-Gal (1→2) β-D-Xyl trisaccharide (compound B)(synthesized according to Lopez et al., 1994) or for a variable time (0 to 42 hours) in the presence or not in the presence of an effector: cycloheximide (1 μM), okadaic acid (5 nM), staurosporine (500 nM), or boroglycine (500 nM). The elicitation experiment is stopped by putting the cells in ice. The cells recovered after decantation and taken up in approximately 1 ml of elicitation buffer are the subject of a specific protein extraction.
D-glycosylhydrolase extraction. The enzyme extracts are prepared from elicited or non-elicited cells. The cells are homogenized at 0° C. in Tris-HCl buffer (50 mM pH 7.2) containing 1 M of NaCl with a Vibracell™ Bioblock sonicator, maximum power, for 3 times 1 minute. The homogenates are centrifuged at 4° C. (12000 g, 15 minutes) then dialysed and concentrated on Ultrafree™ Millipore ultrafiltration units (cut-off threshold 10 kDa). The retentates, taken up in distilled water, are crude extracts.
Endochitinase activity assay. This is based on the released reducing sugar assay according to Somogyi (1952). The reaction medium contains the enzyme extract (1 μg of proteins), the substrate (25 μg of chitin) in 100 μl of sodium acetate buffer (0.1 M), pH 5.0; the enzymatic reaction at 40° C. develops over a variable time (1 to 5 hours).
Evaluation of the experimental data. At least 2 kinetics were carried out per sample, and per set of experiments. The reaction rate (ΔA410 minutes^−1 for example) is obtained by linear regression from 4 kinetic curves. The results are expressed by the ratio R (enzymatic activity in elicited cells/enzymatic activity in non-elicited control cells).

[3] = system: Rubus fruticosus protoplasts; assay: Elicitation of an oxidative burst: generation of superoxide anion (Cyt c assay); format: cell-based; conditions: 25° C.; for Cytochrome c reduction response (100% = non-elicited controls): at 10 nM; for Optimal response, cytochrome c reduction (100% = non-elicited controls): at the optimal dose
Experimental: Preparation of Rubus fruticosus protoplasts according to Vargas-Rechia (1998). The protoplast yield is of the order of 70 to 85% of the initial number of cells used; the viability of the protoplasts, of the order of 90 to 95%, was checked using Evans blue indicator.
The Cyt c assay was carried out according to Nakanishi et al. (1991) in the following manner. Incubation at 25° C. of 4.10^6 protoplasts in the presence of Cyt c (100 μM), and of the elicitor (0 to 100 μM): 2′-fucosyl lactose (compound A), XXFGol (compound B).
Evaluation of the experimental data: The reaction rate is given by (AF340 min^−1). At least three kinetic curves are plotted per experimental condition. One point on the graph corresponds to the slope of the regression curve deduced from at least 6 kinetic curves.
The elicitation response is evaluated according to the cytochrome c reduction measured by the absorbance variation at […]; the 100% reference value corresponds to the reduction count of the controls (non-elicited protoplast suspensions).

vine = assay: Induction of cold resistance in the vine (cold protection index after foliar spraying); format: in vivo, vine (variety Chenin); conditions: vine plants
Experimental: Plants originating from different vine varieties (Chenin, Grolleau, Carignan, Cabernet sauvignon, Cabernet Sauvignon, Pinot noir, Merlot, Chardonnay, Gamay etc.) are used for the study. Each sample, comprising 5 to 10 plants, is treated with foliar spraying at the end of the bud development (starting from vegetative stage 7 on the BBCH scale), or during the inflorescence development period (starting from vegetative stage 12) or at the start of flowering (as from stage 19), with the elicitor (oligomer: XXFG; derivative: 2′-fucosyl lactose) in solution at a variable dose (0.03 mg/l ≦dose≦3.3 mg/l; the spraying of 2.5 ml of solution per plant is carried out using a hand sprayer (deviation of +/−1%).
After treatment, the plants are exposed to cold stress of variable duration and intensity (for example, temperature varying from −2° C. to −5° C.; duration less than or equal to 240 minutes).
After exposure to the cold, the plants are placed in a climatic chamber at 20° C. with a 12-hour day/night alternation. […] The effects of the cold are evaluated by observing the foliar necroses induced by frost and the plants are kept for several months in order to monitor their subsequent development.
The proportion P (%) of foliar necroses observed 3 hours or 24 hours or 48 hours or 72 hours after the cold stress is counted, and the results are expressed by the protection index I=(100-P) %. […]

Elicitor concentration of optimal Plase D response [1]: 1.7 nM
Structure (SMILES): CO[C@@H]1OC[C@@H](O)[C@H](O)[C@H]1O[C@@H]1O[C@H](CO)[C@H](O)[C@H](O)[C@H]1O[C@@H]1O[C@@H](C)[C@@H](O)[C@@H](O)[C@@H]1O [compound B, methyl α-L-Fuc (1→2)β-D-Gal (1→2)β-D-Xyl]
Optimal Plase D response (100% = non-elicited cells) [1]: 230%
Endochitinase response [2]: no enzymatic activation was detected
Endochitinase early response R [2]: ~6
Elicitor dose of optimal response, cytochrome c reduction (superoxide anion) [3]: 15 nM
Cytochrome c reduction response (100% = non-elicited controls) [3]: 160%
Optimal response, cytochrome c reduction (100% = non-elicited controls) [3]: 159%

Elicitor concentration of optimal Plase D response [1]: 1 nM
Plase D elicitation: methyl jasmonate versus 2′-fucosyl lactose ([1]; methyl jasmonate 0 to 5 nM, 2′-fucosyl lactose 1 nM, dose-dependent): antagonistic
Structure (SMILES): C[C@@H]1O[C@@H](O[C@H]2[C@H](O[C@H]3[C@H](O)[C@@H](O)[C@H](O)O[C@@H]3CO)O[C@H](CO)[C@H](O)[C@@H]2O)[C@@H](O)[C@H](O)[C@@H]1O [compound A, α-L-Fuc(1→2)β-D-Gal(1→4)β-D-Glc]
Cold-resistance-inducer effect, efficiency compared with XXFG (vine): equal or slightly lower efficiency
Optimal Plase D response (100% = non-elicited cells) [1]: 244%
Endochitinase response [2]: no enzymatic activation was detected
Endochitinase early response R [2]: ~6
Elicitor dose of optimal response, cytochrome c reduction (superoxide anion) [3]: 50 nM
Cytochrome c reduction response (100% = non-elicited controls) [3]: 187%
Optimal response, cytochrome c reduction (100% = non-elicited controls) [3]: 200%
